According to US6489297B1, “Vasoactive intestinal peptide analogs” (Dabur Research Foundation, priority 2000, dated 2002):
Where a SMILES comes first, the peptide text is derived from it. [ ]: non-standard residue; d: D form. dPhe(4-Cl) = N[C@H](Cc1ccc(Cl)cc1)C(=O)O; Dpg = CCCC(N)(CCC)C(=O)O; Aib = CC(C)(N)C(=O)O

Assays:
Type in all cases: cell-based, human
Conditions in all cases: 72 hours
PA-1 (ovary) = assay: MTT cytotoxicity assay, PA-1 cells
Protocol: (§1) The cytotoxic activity of synthesized peptides was tested on […] human tumor cell lines namely PA-1 (ovary), SW620 (colon) HuTu80 (duodenum), L132 (lung), U87MG (glioblastoma), KB (oral), MIAPaCa2(pancreas), A549(non small cell lung) and HT-29(colon). The tumor cells were collected at exponential growth phase and resuspended in medium (1.5×10^6 cells/ml in RPMI 1640 containing 10% FBS). 150 μl of medium was added to the wells of a 96-well tissue culture plate (Nunc, Denmark) followed by 30 μl of cell suspension. The plate was left in incubator (37° C., 5% CO2) overnight. 20 μl of the peptide (100 pM to 1 uM concentration) was added to marked wells of the 96-well plate. Each concentration was plated in triplicates. 20 μl of medium alone was added to control wells while wells without cells served as blanks. A total volume of 200 μl was ensured in each well and plate was left in incubator (37° C., 5% CO2). After 72 hours of incubation an MTT assay was performed and percentage cytotoxicity was calculated with respect to control cells. Following Tables show the maximum cytotoxicity achieved on various cell lines.

SW620 (colon) = assay: MTT cytotoxicity assay, SW620 cells
Protocol: as §1

HuTu80 (duodenum) = assay: MTT cytotoxicity assay, HuTu80 cells
Protocol: as §1

L132 (lung) = assay: MTT cytotoxicity assay, L132 cells
Protocol: as §1

U87MG (glioblastoma) = assay: MTT cytotoxicity assay, U87MG cells
Protocol: as §1

KB (oral) = assay: MTT cytotoxicity assay, KB cells
Protocol: as §1

MIAPaCa2(pancreas) = assay: MTT cytotoxicity assay, MIAPaCa2 cells
Protocol: as §1

[1] = test system: A549(non small cell lung); assay: MTT cytotoxicity assay, A549 cells
Protocol: as §1

HT-29(colon) = assay: MTT cytotoxicity assay, HT-29 cells
Protocol: as §1

Compound: CC[C@H](C)[C@H](NC(=O)[C@H](CO)NC(=O)[C@H](CC(N)=O)NC(=O)[C@H](CC(C)C)NC(=O)[C@H](Cc1ccc(O)cc1)NC(=O)[C@H](CCCCN)NC(=O)[C@H](CCCCN)NC(=O)[C@@H](NC(=O)[C@H](C)NC(=O)[C@H](CC(C)C)NC(=O)[C@H](CCC(N)=O)NC(=O)[C@H](CCCCN)NC(=O)[C@H](CCCNC(=N)N)NC(=O)[C@H](CC(C)C)NC(=O)[C@H](CCCNC(=N)N)NC(=O)[C@@H](NC(=O)[C@H](Cc1ccc(O)cc1)NC(=O)[C@H](CC(N)=O)NC(=O)[C@H](CC(=O)O)NC(=O)[C@@H](NC(=O)[C@@H](Cc1ccc(Cl)cc1)NC(=O)[C@@H](NC(=O)C(C)(C)NC(=O)[C@H](CC(=O)O)NC(=O)[C@H](CO)NC(=O)[C@@H](N)Cc1c[nH]cn1)C(C)C)[C@@H](C)O)[C@@H](C)O)C(C)C)C(=O)N[C@@H](CC(C)C)C(=O)N[C@@H](CC(N)=O)C(N)=O [SEQ ID NO: 2] (H-HSD[Aib]V[dPhe(4-Cl)]TDNYTRLRKQLAVKKYLNSILN-NH2)
- Percentage cytotoxicity (PA-1 (ovary); PA1, 100 pM): 16 ± 3.3%
- Percentage cytotoxicity (PA-1 (ovary); PA1, 1 nM): 30.0 ± 6.7%
- Percentage cytotoxicity (PA-1 (ovary); PA1, 10 nM): 28.9 ± 5.5%
- Percentage cytotoxicity (PA-1 (ovary); PA1, 100 nM): 18.9 ± 4.2%
- Percentage cytotoxicity (PA-1 (ovary); PA1, 1 μM): 16.5 ± 3.4%
- Percentage cytotoxicity (SW620 (colon); SW620, 100 pM): 16.9 ± 4.5%
- Percentage cytotoxicity (SW620 (colon); SW620, 1 nM): 28 ± 6.6%
- Percentage cytotoxicity (SW620 (colon); SW620, 10 nM): 30 ± 4.5%
- Percentage cytotoxicity (SW620 (colon); SW620, 100 nM): 23 ± 3.8%
- Percentage cytotoxicity (SW620 (colon); SW620, 1 μM): 18.5 ± 5.1%
- Percentage cytotoxicity (HuTu80 (duodenum); HuTu80, 100 pM): 10 ± 3.5%
- Percentage cytotoxicity (HuTu80 (duodenum); HuTu80, 1 nM): 20 ± 5.5%
- Percentage cytotoxicity (HuTu80 (duodenum); HuTu80, 10 nM): 18 ± 4.5%
- Percentage cytotoxicity (HuTu80 (duodenum); HuTu80, 100 nM): 24 ± 5.6%
- Percentage cytotoxicity (HuTu80 (duodenum); HuTu80, 1 μM): 39 ± 4.5%
- Percentage cytotoxicity (L132 (lung); L132, 100 pM): 18 ± 2.3%
- Percentage cytotoxicity (L132 (lung); L132, 1 nM): 28 ± 4.5%
- Percentage cytotoxicity (L132 (lung); L132, 10 nM): 30.9 ± 7.0%
- Percentage cytotoxicity (L132 (lung); L132, 100 nM): 18.9 ± 5.0%
- Percentage cytotoxicity (L132 (lung); L132, 1 μM): 15.9 ± 7.5%
- Percentage cytotoxicity (U87MG (glioblastoma); 100 pM): 10.5 ± 4.5%
- Percentage cytotoxicity (U87MG (glioblastoma); 1 nM): 12 ± 7.6%
- Percentage cytotoxicity (U87MG (glioblastoma); 10 nM): 28.9 ± 5.6%
- Percentage cytotoxicity (U87MG (glioblastoma); 100 nM): 19.0 ± 7.0%
- Percentage cytotoxicity (U87MG (glioblastoma); 1 μM): 14 ± 4.5%
- Percentage cytotoxicity (KB (oral); 100 pM): 47 ± 8.5%
- Percentage cytotoxicity (KB (oral); 1 nM): 42 ± 8.0%
- Percentage cytotoxicity (KB (oral); 10 nM): 34 ± 6.0%
- Percentage cytotoxicity (KB (oral); 100 nM): 37 ± 5.0%
- Percentage cytotoxicity (KB (oral); 1 μM): 43 ± 0.5%
- Percentage cytotoxicity (MIAPaCa2(pancreas); MIAPaCa2, 100 pM): 20 ± 6.5%
- Percentage cytotoxicity (MIAPaCa2(pancreas); MIAPaCa2, 1 nM): 31 ± 5.0%
- Percentage cytotoxicity (MIAPaCa2(pancreas); MIAPaCa2, 10 nM): 35 ± 3.5%
- Percentage cytotoxicity (MIAPaCa2(pancreas); MIAPaCa2, 100 nM): 32 ± 4.5%
- Percentage cytotoxicity (MIAPaCa2(pancreas); MIAPaCa2, 1 μM): 36 ± 0.5%
- Percentage cytotoxicity ([1]; A549, 100 pM): 16 ± 5.5%
- Percentage cytotoxicity ([1]; A549, 1 nM): 19 ± 4.5%
- Percentage cytotoxicity ([1]; A549, 10 nM): 21 ± 5.5%
- Percentage cytotoxicity ([1]; A549, 100 nM): 41 ± 6.0%
- Percentage cytotoxicity ([1]; A549, 1 μM): 45 ± 5.5%
- Percentage cytotoxicity (HT-29(colon); HT29, 100 pM): 26 ± 5.5%
- Percentage cytotoxicity (HT-29(colon); HT29, 1 nM): 25 ± 4.5%
- Percentage cytotoxicity (HT-29(colon); HT29, 10 nM): 25 ± 4.5%
- Percentage cytotoxicity (HT-29(colon); HT29, 100 nM): 30 ± 5.8%
- Percentage cytotoxicity (HT-29(colon); HT29, 1 μM): 38 ± 5.5%

Compound: CCCC(CCC)(NC(=O)[C@H](CCC(N)=O)NC(=O)[C@H](CCCCN)NC(=O)[C@H](CCCNC(=N)N)NC(=O)[C@H](CC(C)C)NC(=O)[C@H](CCCNC(=N)N)NC(=O)[C@@H](NC(=O)[C@H](Cc1ccc(O)cc1)NC(=O)[C@H](CC(N)=O)NC(=O)[C@H](CC(=O)O)NC(=O)[C@@H](NC(=O)[C@@H](Cc1ccc(Cl)cc1)NC(=O)[C@@H](NC(=O)C(C)(C)NC(=O)[C@H](CC(=O)O)NC(=O)[C@H](CO)NC(=O)[C@@H](N)Cc1c[nH]cn1)C(C)C)[C@@H](C)O)[C@@H](C)O)C(=O)N[C@@H](C)C(=O)N[C@H](C(=O)N[C@@H](CCCCN)C(=O)N[C@@H](CCCCN)C(=O)N[C@@H](Cc1ccc(O)cc1)C(=O)N[C@@H](CC(C)C)C(=O)N[C@@H](CC(N)=O)C(=O)N[C@@H](CO)C(=O)N[C@H](C(=O)N[C@@H](CC(C)C)C(=O)N[C@@H](CC(N)=O)C(N)=O)[C@@H](C)CC)C(C)C [SEQ ID NO: 10, His-Ser-Asp-Aib-Val-4-Cl-D-Phe-Thr-Asp-Asn-Tyr-Thr-Arg-Leu-Arg-Lys-Gln-Dpg-Ala-Val-Lys-Lys-Tyr-Leu-Asn-Ser-Ile-Leu-Asn-NH2] (H-HSD[Aib]V[dPhe(4-Cl)]TDNYTRLRKQ[Dpg]AVKKYLNSILN-NH2)
- Percentage cytotoxicity (PA-1 (ovary); PA1, 100 pM): 28 ± 0.0%
- Percentage cytotoxicity (PA-1 (ovary); PA1, 1 nM): 31 ± 6.0%
- Percentage cytotoxicity (PA-1 (ovary); PA1, 10 nM): 26 ± 3.0%
- Percentage cytotoxicity (PA-1 (ovary); PA1, 100 nM): 25 ± 5.0%
- Percentage cytotoxicity (PA-1 (ovary); PA1, 1 μM): 23 ± 6.5%
- Percentage cytotoxicity (SW620 (colon); SW620, 100 pM): 17 ± 4.0%
- Percentage cytotoxicity (SW620 (colon); SW620, 1 nM): 30 ± 6.5%
- Percentage cytotoxicity (SW620 (colon); SW620, 10 nM): 29 ± 5.0%
- Percentage cytotoxicity (SW620 (colon); SW620, 100 nM): 24 ± 7.3%
- Percentage cytotoxicity (SW620 (colon); SW620, 1 μM): 16 ± 5.5%
- Percentage cytotoxicity (HuTu80 (duodenum); HuTu80, 100 pM): 15 ± 7.8%
- Percentage cytotoxicity (HuTu80 (duodenum); HuTu80, 1 nM): 31 ± 7.0%
- Percentage cytotoxicity (HuTu80 (duodenum); HuTu80, 10 nM): 28 ± 5.0%
- Percentage cytotoxicity (HuTu80 (duodenum); HuTu80, 100 nM): 28 ± 8.0%
- Percentage cytotoxicity (HuTu80 (duodenum); HuTu80, 1 μM): 16 ± 4.5%
- Percentage cytotoxicity (L132 (lung); L132, 100 pM): 15 ± 7.0%
- Percentage cytotoxicity (L132 (lung); L132, 1 nM): 28 ± 6.0%
- Percentage cytotoxicity (L132 (lung); L132, 10 nM): 31 ± 6.0%
- Percentage cytotoxicity (L132 (lung); L132, 100 nM): 29 ± 5.5%
- Percentage cytotoxicity (L132 (lung); L132, 1 μM): 17 ± 5.0%
- Percentage cytotoxicity (U87MG (glioblastoma); 100 pM): 12 ± 5.0%
- Percentage cytotoxicity (U87MG (glioblastoma); 1 nM): 16 ± 7.8%
- Percentage cytotoxicity (U87MG (glioblastoma); 10 nM): 30.1 ± 4.0%
- Percentage cytotoxicity (U87MG (glioblastoma); 100 nM): 29 ± 7.0%
- Percentage cytotoxicity (U87MG (glioblastoma); 1 μM): 29 ± 4.0%
- Percentage cytotoxicity (KB (oral); 100 pM): 12 ± 8.0%
- Percentage cytotoxicity (KB (oral); 1 nM): 32 ± 7.8%
- Percentage cytotoxicity (KB (oral); 10 nM): 26 ± 7.8%
- Percentage cytotoxicity (KB (oral); 100 nM): 27 ± 6.0%
- Percentage cytotoxicity (KB (oral); 1 μM): 30 ± 5.0%
